Values of other authors as cited in patent US5763596A, “C-4' modified adenosine kinase inhibitors” (Metabasis Therapeutics, Inc., priority 1996, dated 1998).
Read-outs that look alike come from different tables or passages of the source.

What was measured:
[1] = in vivo; cited from earlier work
guinea pig brain slices = details: cited from earlier work
mice = details: cited from earlier work
rat brain slices = details: cited from earlier work
isolated rat hearts = details: cited from earlier work
rat cardiomyocytes = details: adenosine deaminase inhibition alone; cited from earlier work
[2] = test system: isolated guinea pig hearts; details: in the absence of ADA inhibition; cited from earlier work

## Nc1ncnc2c1c(I)cn2[C@@H]1O[C@H](CO)[C@@H](O)[C@H]1O [5-iodotubercidin]
[1]
  protection against ischemic cerebral injury: apparently does not protect against ischemic cerebral injury
Guinea pig brain slices
  adenosine uptake: adenosine uptake was reportedly inhibited
mice
  general flaccidity: pronounced general flaccidity
Rat brain slices
  adenosine uptake: adenosine uptake was reportedly inhibited
Isolated rat hearts; hypoxic, anoxic or ischemic conditions
  increase in perfusate adenosine concentration: no increase in perfusate adenosine concentration
Isolated rat hearts; normoxic conditions
  increase in perfusate adenosine concentration: no increase in perfusate adenosine concentration

## OC[C@H]1O[C@@H](n2cnc3c2N=CNC[C@H]3O)C[C@@H]1O [2'-deoxycoformycin]
Rat cardiomyocytes
  effect on adenosine release from the cells: no effect on adenosine release

## C[C@H]1O[C@@H](n2cc(I)c3c(N)ncnc32)[C@H](O)[C@@H]1O [5'-deoxy-5-iodotubercidin]
Guinea pig brain slices
  adenosine uptake: adenosine uptake was reportedly inhibited
mice
  general flaccidity: pronounced general flaccidity
Rat brain slices
  adenosine uptake: adenosine uptake was reportedly inhibited

## NC[C@H]1O[C@@H](n2cnc3c(N)ncnc32)[C@H](O)[C@@H]1O [5'-amino-5'-deoxyadenosine]
[2]
  adenosine release effect: not apparent
